For experiment [1], the system named is JAK2, TYK2/p-STAT4 (Tyr693) activated by IL-12 in NK-92 cell line. The experiment can be described thus: IL-12-JAK2, TYK2/p-STAT4 (Tyr693) inhibition cellular assay. It is filed as cell-based. The settings on record: for IC50: NK92, 0.5 h, NK-92 cells, IL-12 40 ng/ml, 30 min, read-out: Cellular assay pSTAT4/IL-12 IC50; for Cellular assay Selectivity fold (TYK2/JAK1): pSTAT4/IL-12 vs pSTAT3/IL-6 cellular IC50. The procedure, abridged: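 NK-92 cells were starved overnight without IL-2 and seeded at 5×10^4 per well in 1640 medium with 0.1% BSA. Lysate p-STAT4 (Tyr693) was measured by AlphaLISA SureFire, and IC50 was fitted with a 4-parameter logistic model.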

Experiment [2] has as its target T1, TYK2-JH2 (aa 575-869, in-house) protein (Homo sapiens, UniProt P29597).
T1 construct: TYK2-JH2 (aa 575-869, in-house) protein; made in house
Kind of experiment: TYK2-JH2 biochemical assay (HTRF, blocking of TYK2-JH2 protein with its probe). Type of experiment: binding. The settings on record: for IC50: HTRF, 0.2 nM recombinant TYK2-JH2, Probe 1; for Biochemical assay Selectivity fold (TYK2/JAK1): TYK2-JH2 vs JAK1-JH2 biochemical IC50. An outline of the steps:
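Recombinant TYK2-JH2 (0.2 nM) pre-incubated with compounds (10 doses, 5-fold dilutions) 0.5 h at RT in HEPES pH 7.5 buffer with MgCl2, BSA, DTT, Brij-35; biotinylated probe (10 nM working solution, KD=10 nM) plus anti-6His Tb cryptate/streptavidin-XL665 added, 1 h RT. HTRF ratio read; IC50 from four-parameter logistic fit.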

For experiment [3], the target named is T2, JAK1-JH2 protein (aa 561-860, in-house) (Homo sapiens, UniProt P23458).
T2 construct: JAK1-JH2 protein (aa 561-860, in-house); made in house
T2 sequence (P23458 561-860): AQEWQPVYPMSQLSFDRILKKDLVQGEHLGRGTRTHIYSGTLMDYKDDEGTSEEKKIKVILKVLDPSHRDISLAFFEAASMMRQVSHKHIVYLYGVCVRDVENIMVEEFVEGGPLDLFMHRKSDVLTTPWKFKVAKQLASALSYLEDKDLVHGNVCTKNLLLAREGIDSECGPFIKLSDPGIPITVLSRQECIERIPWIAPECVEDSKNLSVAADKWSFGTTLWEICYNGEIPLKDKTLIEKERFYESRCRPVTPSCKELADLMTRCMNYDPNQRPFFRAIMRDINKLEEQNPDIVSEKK
The experiment can be described thus: JAK1-JH2 biochemical assay (HTRF, blocking of JAK1-JH2 protein with its probe). The conditions noted are these: 1.17 nM recombinant JAK1-JH2, Probe 2. Type of experiment: binding. An outline of the steps: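 HTRF probe-displacement assay using recombinant human JAK1 pseudokinase domain (aa 561-860, 1.17 nM in pre-incubation step), pre-incubated 0.5 h at room temperature with 10-dose 5-fold compound series. Buffer: 20 mM HEPES pH 7.5, 10 mM MgCl2, 0.005% BSA, 2 mM DTT, 0.015% Brij-35. IC50 by four-parameter logistic fit of 615/665 nm ratio.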
(In general: TR-FRET usually uses a lanthanide donor and a delayed reading to cut background.)

For experiment [4], the system named is JAK1/p-STAT3(Tyr705) activated by IL-6 in TF-1 cell line. The experiment can be described thus: IL-6-JAK1/p-STAT3(Tyr705) inhibition cellular assay. The settings on record: Homo sapiens, 0.5 h; TF-1 cells, IL-6 50 ng/ml, 30 min; read-out: Cellular assay pSTAT3/IL-6 IC50. It is filed as cell-based.

T1 sequence (P29597 575-869): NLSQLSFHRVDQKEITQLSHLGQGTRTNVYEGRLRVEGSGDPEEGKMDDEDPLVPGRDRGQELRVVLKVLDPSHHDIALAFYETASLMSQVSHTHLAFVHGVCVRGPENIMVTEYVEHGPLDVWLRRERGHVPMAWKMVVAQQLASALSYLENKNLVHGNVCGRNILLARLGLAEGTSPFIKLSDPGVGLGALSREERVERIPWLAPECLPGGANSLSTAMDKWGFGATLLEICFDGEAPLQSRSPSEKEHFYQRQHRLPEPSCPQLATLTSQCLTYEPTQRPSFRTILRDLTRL

`CNC(=O)c1nnc(NC(=O)C2CC2)cc1Nc1nc2ccc(N3CCC(N4CC(F)(F)C4)CC3)cn2n1` [Example E12, 6-(cyclopropanecar-boxamido)-4-((6-(4-(3,3-difluoroazetidin-1-yl)piperidin-1-yl)-[1,2,4]triazolo[1,5-a]pyridin-2-yl)amino)-N-methylpyridazine-3-carboxamide]: the IC50 in experiment [1] came to 6.31 nM; in experiment [2], 0.024 nM; in experiment [3] it was 1.7 nM; in experiment [4] it was 9930 nM. The “Cellular assay Selectivity fold (TYK2/JAK1)” value in experiment [1] was 1478 fold. In addition, the “Biochemical assay Selectivity fold (TYK2/JAK1)” value in experiment [2] turned out to be 71 fold.
Consider `CNC(=O)c1nnc(NC(=O)C2CC2)cc1Nc1nc2ccc(N3CCCC(N4CC(F)(F)C4)C3)cn2n1` (stereo not drawn) [Example E13, 6-(cyclopropanecar-boxamido)-4-((6-(3-(3,3-difluoroazetidin-1-yl)piperidin-1-yl)-[1,2,4]triazolo[1,5-a]pyridin-2-yl)amino)-N-methylpyridazine-3-carboxamide], for which the IC50 in experiment [1] is 15.9 nM; in experiment [2] it was 0.047 nM; in experiment [3], 2.6 nM; in experiment [4], > 10000 nM. Also, the “Cellular assay Selectivity fold (TYK2/JAK1)” value in experiment [1] is given as >629 fold. Moreover, in experiment [2], the “Biochemical assay Selectivity fold (TYK2/JAK1)” value came out at 55 fold.
Turning to `CNC(=O)c1nnc(NC(=O)C2CC2)cc1Nc1nc2ccc(N3CC(N4CCCCC4)C3)cn2n1` [Example E14, 6-(cyclopropanecar-boxamido)-N-methyl-4-((6-(3-(piperidin-1-yl)azetidin-1-yl)-[1,2,4]triazolo [1,5-a]pyridin-2-yl)amino) pyridazine-3-carboxamide], the IC50 in experiment [1] is 42.6 nM; in experiment [2], 0.11 nM; in experiment [3], 1.8 nM; in experiment [4], > 10000 nM. Besides, the “Cellular assay Selectivity fold (TYK2/JAK1)” value in experiment [1] is reported as >234 fold. Besides, the “Biochemical assay Selectivity fold (TYK2/JAK1)” value in experiment [2] is on record as 16 fold.
As for `CNC(=O)c1nnc(NC(=O)C2CC2)cc1Nc1nc2ccc(N3CC(COC)C3)cn2n1` [Example E15, 6-(cyclopropanecar-boxamido)-4-((6-(3-(methoxymethyl)azetidin-1-yl)-[1,2,4]triazolo[1,5-a]pyridin-2-yl)amino)-N-methylpyridazine-3-carboxamide], the IC50 in experiment [1] was 8.14 nM; in experiment [2] it was 0.045 nM; in experiment [3] it was 1.3 nM; in experiment [4], > 10000 nM. The “Cellular assay Selectivity fold (TYK2/JAK1)” value in experiment [1] is on record as >1228 fold. Further, the “Biochemical assay Selectivity fold (TYK2/JAK1)” value in experiment [2] amounted to 29 fold.
Turning to `CNC(=O)c1nnc(NC(=O)C2CC2)cc1Nc1nc2ccc(N3CC(OCCOC)C3)cn2n1` [Example E16, 6-(cyclopropanecar-boxamido)-4-((6-(3-(2-methoxyethoxy)azetidin-1-yl)-[1,2,4]triazolo[1,5-a]pyridin-2-yl)amino)-N-methylpyridazine-3-carboxamide], the IC50 was found to be 15.6 nM in experiment [1], 0.046 nM in experiment [2], 0.93 nM in experiment [3] and 2910 nM in experiment [4]. In experiment [1], the “Cellular assay Selectivity fold (TYK2/JAK1)” value worked out at 186 fold. Further, the “Biochemical assay Selectivity fold (TYK2/JAK1)” value in experiment [2] came out at 20 fold.
With `CNC(=O)c1nnc(NC(=O)C2CC2)cc1Nc1nc2ccc(N3CC(F)(COC)C3)cn2n1` [Example E17, 6-(cyclopropanecar-boxamido)-4-((6-(3-fluoro-3-(methoxy-methyl)azetidin-1-yl)-[1,2,4]triazolo[1,5-a]pyridin-2-yl)amino)-N-methylpyridazine-3-carboxamide], the IC50 was 8.28 nM in experiment [1], 0.071 nM in experiment [2], 2.5 nM in experiment [3] and 2630 nM in experiment [4]. Further, the “Cellular assay Selectivity fold (TYK2/JAK1)” value in experiment [1] worked out at 317 fold. In addition, the “Biochemical assay Selectivity fold (TYK2/JAK1)” value in experiment [2] was found to be 35 fold.
Take `CNC(=O)c1nnc(NC(=O)C2CC2)cc1Nc1nc2ccc(N3CC(S(C)(=O)=O)C3)cn2n1` [Example E18, 6-(cyclopropanecar-boxamido)-N-methyl-4-((6-(3-(methyl-sulfonyl)azetidin-1-yl)-[1,2,4]triazolo [1,5-a]pyridin-2-yl)amino)pyridazine-3-carboxamide]: the IC50 is 645 nM in experiment [1], 0.12 nM in experiment [2], 1.5 nM in experiment [3] and > 10000 nM in experiment [4]. The “Cellular assay Selectivity fold (TYK2/JAK1)” value in experiment [1] is given as >15.5 fold. The “Biochemical assay Selectivity fold (TYK2/JAK1)” value in experiment [2] is on record as 13 fold.
Turning to `CNC(=O)c1nnc(NC(=O)C2CC2)cc1Nc1nc2ccc(N3CC(Oc4ccc(F)cc4F)C3)cn2n1` [Example E19, 6-(cyclopropanecar-boxamido)-4-((6-(3-(2,4-difluorophenoxy)azetidin-1-yl)-[1,2,4]triazolo[1,5-a]pyridin-2-yl)amino)-N-methylpyridazine-3-carboxamide], the IC50 in experiment [1] was 105 nM; in experiment [2], 0.14 nM; in experiment [3], 8.4 nM; in experiment [4], > 10000 nM. Moreover, the “Cellular assay Selectivity fold (TYK2/JAK1)” value in experiment [1] is on record as >95 fold. Besides, in experiment [2], the “Biochemical assay Selectivity fold (TYK2/JAK1)” value is on record as 60 fold.
In the case of `CNC(=O)c1nnc(NC(=O)C2CC2)cc1Nc1nc2ccc(N3CCC3COC)cn2n1` (stereo not drawn) [Example E20, 6-(cyclopropanecar-boxamido)-4-((6-(2-(methoxymethyl)azetidin-1-yl)-[1,2,4]triazolo[1,5-a]pyridin-2-yl)amino)-N-methylpyridazine-3-carboxamide], the IC50 in experiment [1] was 16.4 nM; in experiment [2], 0.089 nM; in experiment [3] it was 3.2 nM; in experiment [4] it was > 10000 nM. For the same compound, the “Cellular assay Selectivity fold (TYK2/JAK1)” value in experiment [1] is on record as >609 fold. Moreover, the “Biochemical assay Selectivity fold (TYK2/JAK1)” value in experiment [2] came out at 36 fold.
For the compound `CNC(=O)c1nnc(NC(=O)C2CC2)cc1Nc1nc2ccc(N3CCC(N4CC(N(C)C)C4)CC3)cn2n1` [Example E21, 6-(cyclopropanecar-boxamido)-4-((6-(4-(3-(dimethylamino)azetidin-1-yl)piperidin-1-yl)-[1,2,4]triazolo [1,5-a]pyridin-2-yl)amino)-N-methylpyridazine-3-carboxamide], the IC50 in experiment [1] is 42 nM; in experiment [2], 0.077 nM; in experiment [3] it was 2.78 nM; in experiment [4] it was > 10000 nM. In experiment [1], the “Cellular assay Selectivity fold (TYK2/JAK1)” value is >238 fold. Besides, the “Biochemical assay Selectivity fold (TYK2/JAK1)” value in experiment [2] is given as 36 fold.
Turning to `CCN(CC)C1CN(c2ccc3nc(Nc4cc(NC(=O)C5CC5)nnc4C(=O)NC)nn3c2)C1` [Example E22, 6-(cyclopropanecar-boxamido)-4-((6-(3-(diethylamino)azetidin-1-yl)-[1,2,4]triazolo [1,5-a]pyridin-2-yl)amino)-N-methylpyridazine-3-carboxamide], the IC50 is 37.2 nM in experiment [1], 0.093 nM in experiment [2], 1.03 nM in experiment [3] and 5120 nM in experiment [4]. For the same compound, in experiment [1], the “Cellular assay Selectivity fold (TYK2/JAK1)” value is on record as 138 fold. Also, the “Biochemical assay Selectivity fold (TYK2/JAK1)” value in experiment [2] came out at 11 fold.
In the case of `CNC(=O)c1nnc(NC(=O)C2CC2)cc1Nc1nc2ccc(N3CC(N(C)S(C)(=O)=O)C3)cn2n1` [Example F1, 6-(cyclopropanecarboxamido)-N-methyl-4-((6-(3-(N-methylmethylsulfonamido)azetidin-1-yl)-[1,2,4]triazolo[1,5-a]pyridin-2-yl)amino)pyridazine-3-carboxamide], the IC50 in experiment [1] was 95 nM; in experiment [2] it was 0.12 nM; in experiment [3] it was 2.6 nM; in experiment [4] it was > 10000 nM. The “Cellular assay Selectivity fold (TYK2/JAK1)” value in experiment [1] is >105 fold. Also, the “Biochemical assay Selectivity fold (TYK2/JAK1)” value in experiment [2] turned out to be 22 fold.
For the compound `CNC(=O)c1nnc(NC(=O)C2CC2)cc1Nc1nc2ccc(N3CC(C(C)O)C3)cn2n1` (stereo not drawn) [Example G1, 6-(cyclopropanecarboxamido)-4-((6-(3-(1-hydroxyethyl)azetidin-1-yl)-[1,2,4]triazolo[1,5-a]pyridin-2-yl)amino)-N-methylpyridazine-3-carboxamide], the IC50 in experiment [1] is 9.05 nM; in experiment [2] it was 0.076 nM; in experiment [3], 1.8 nM; in experiment [4] it was > 10000 nM. The “Cellular assay Selectivity fold (TYK2/JAK1)” value in experiment [1] is >1104 fold. Also, in experiment [2], the “Biochemical assay Selectivity fold (TYK2/JAK1)” value worked out at 24 fold.
Take `CNC(=O)c1nnc(NC(=O)C2CC2)cc1Nc1nc2ccc(N3CC(O)C3)cn2n1` [Example H1, 6-(cyclopropanecarboxamido)-4-((6-(3-hydroxyazetidin-1-yl)-[1,2,4]triazolo[1,5-a]pyridin-2-yl)amino)-N-methylpyridazine-3-carboxamide]: the IC50 in experiment [1] is 34.2 nM; in experiment [2], 0.057 nM; in experiment [3] it was 1.2 nM; in experiment [4], > 10000 nM. In experiment [1], the “Cellular assay Selectivity fold (TYK2/JAK1)” value is on record as >292 fold. In addition, the “Biochemical assay Selectivity fold (TYK2/JAK1)” value in experiment [2] is 21 fold.
